Key:
non-tumor CHO cells = assay: CellTiter-Glo Luminescent Cell Viability Assay; type: cell-based, Chinese hamster; details: for IC50: Cricetulus griseus, 48 h treatment, read-out: IC50 (estimated)
Protocol: Conjugates 9b and 9e were selected based on their antitumor effects to be tested on non-tumor CHO cells in the CellTiter-Glo Luminescent Cell Viability Assay to investigate their potential selectivity for cancer cells. Following a 48 h treatment with the conjugates in the 0.10–10 µM concentration range, a concentration-dependent decrease in the luminescent signal was observed, indirectly representing the ATP production of living cells as an indicator of cell viability.
Conjugates 9b and 9e were dissolved in DMSO in 10 mM stock solutions and stored frozen until use. CHO cells were cultured in complete Dulbecco’s Modified Eagle’s Medium (DMEM, low glucose (1 g/L) supplemented with 10% fetal bovine serum, 1% Gibco GlutaMAX-I (100×) solution, 1% Gibco MEM non-essential amino acid solution (100×), and 0.1% penicillin–streptomycin mixture). The CellTiter-Glo Luminescent Cell Viability Assay (Promega Corporation, Madison, WI, USA) was performed as previously described. Cells were grown under standard cell culture conditions (37 °C, 5% CO2) and passaged at 70–80% confluency. According to the manufacturer’s protocol, CHO cells were seeded to opaque 96-well culture plates (5000 cells/100 µL complete DMEM/well) and the side rows and columns of the plate were filled with sterile phosphate-buffer saline to avoid artifacts. […] The luminescent signal was measured for each assay well with an EnSpire AlphaLisa microplate reader (Perkin Elmer, Inc., Waltham, MA, USA). […] Estimated IC50 values were calculated using non-linear regression by fitting a sigmoidal dose-response curve to the data points (log(inhibitor) vs. normalized response, variable slope, and least squares fit).
Statistical analysis (ANOVA) and estimation of IC50 values were performed in GraphPad Prism 8.0.1 (GraphPad, La Jolla, CA, USA). Estimated IC50 values were calculated using non-linear regression by fitting a sigmoidal dose-response curve to the data points (log(inhibitor) vs. normalized response, variable slope, least squares fit).

[1] = test system: 60 human tumor cell lines (NCI60); design: method as in PMID 39063170; details: previous work; cited from earlier work
A2780 cells [2] = assay: Cell cycle analysis (propidium iodide flow cytometry); type: cell-based, human
Protocol: Based on its promising IC50 and selectivity, compound 9g was selected for further investigations, including cell cycle analysis. Treatment with derivative 9g induced concentration- and time-dependent cell cycle disturbances in A2780 ovarian cancer cells, accompanied by apoptosis (Figure 3). […] After a 48 h exposure, the lower concentration maintained this pattern (G0/G1 elevation and S and G2/M reduction).
A2780 cells were seeded onto 12-well plates at densities of 200,000 cells per well and the plates were then incubated overnight under standard cell culture conditions. Then, the media were removed and the cells in each well were washed with phosphate-buffered saline (PBS) and treated with 1000 µL of fresh medium containing 1.5 or 3.0 µM of compound 9g for 24 or 48 h. After the incubation, the cells were washed with PBS and harvested using trypsinization. The cell suspensions were centrifuged at 1100 rpm for 5 min at room temperature. The cells were rewashed and fixed in 500 µL of cold 70% ethanol for 30 min. Following the fixation, cells were centrifuged at 1300 rpm for 5 min at 4 °C and the pellets were resuspended in 300 µL staining solution (containing 10 µg/mL propidium iodide, 0.1% Triton-X, 0.1% sodium citrate, and 10 µg/mL RNase-A in water). The samples were stored in the dark at room temperature for 30 min. The stained cells were then analyzed using a flow cytometer (CytoFLEX, Beckman Coulter, Brea, CA, USA), recorded by CytExpert Software 2.5.0.77 (Beckman Coulter), ensuring that at least 20,000 events per sample were evaluated. The percentages of cells in different phases of the cell cycle (subG1, G1, S, and G2/M) were determined using ModFit LT 3.3.11 software (Verity Software House, Topsham, ME, USA); the subG1 fraction indicated the apoptotic cell population, as referenced by Vermes et al.. […]

A2780 cells [3] = assay: Wound healing migration assay; type: cell-based, human; details: A2780, sub-inhibitory concentrations (0.5 or 1.0 µM), 24 and 48 h
Protocol: The antimigratory properties of compound 9g were investigated using the in vitro wound healing assay against the ovarian cancer cell line A2780.
The effect of compound 9g on the migration of A2780 cells was assessed using a wound-healing assay. A2780 cells were trypsinized and seeded into specialized wound assay chambers (ibidi GmbH, Martinsried, Germany) at a density of 80,000 cells/insert and the plate was incubated under standard conditions to allow proper attachment. After incubation, the inserts were carefully removed and the wells were washed twice with PBS to eliminate non-adherent cells and debris. The cells were subsequently treated with […] at 0.5 or 1.0 µM in fresh medium containing 2% FBS. The migration of cells toward the wound site was visualized using a phase-contrast inverted microscope (Nikon Instruments Europe, Amstelveen, The Netherlands) and images were captured with a CCD camera (QImaging MicroPublisher Color RTV5.0 Teledyne Photometrics, Tucson, AZ, USA). The percentage of cell migration was calculated at different time intervals (0, 24, and 48 h) by measuring the cell-free area in treated samples against untreated controls using ImageJ software 1.54d (National Institutes of Health, Bethesda, MD, USA). The experiments were conducted twice with at least three parallel samples.

CC[C@]12C=CCN3CC[C@@]4(c5ccc(OC)cc5N(C)[C@H]4[C@@](O)(C(=O)OC)[C@@H]1OC(=O)CCC[P+](c1ccc(OC)cc1)(c1ccc(OC)cc1)c1ccc(OC)cc1)[C@@H]32 [9b]
IC50 (non-tumor CHO cells): 2980 nM

CCC12C=CCN3CC[C@@]4(c5ccc(OC)cc5N(C)[C@H]4[C@@](O)(C(=O)OC)[C@@H]1OC(C)=O)[C@@H]32 (some centres unmarked) [compound 2, vindoline]
antiproliferative effects (in words) [1]: do not exert antiproliferative effects

CC[C@]12C=CCN3CC[C@@]4(c5ccc(OC)cc5N(C)[C@H]4[C@@](O)(C(=O)OC)[C@@H]1OC(=O)CCC[P+](c1ccccc1)(c1ccccc1)c1ccccn1)[C@@H]32 [9g]
S and G2/M phase populations (A2780 cells [2]; A2780, 1.5 μM and 3.0 μM, 24 h): decreasing
proportion of cells in the G0/G1 phase (A2780 cells [2]; A2780, 1.5 μM and 3.0 μM, 24 h): significantly increased
subG1 cell population (A2780 cells [2]; A2780, particularly after the more prolonged exposure (48 h)): remarkable increase
cell migration (A2780 cells [3]): concentration- and duration-dependent reduction in cell migration

CC[C@]12C=CCN3CC[C@@]4(c5ccc(OC)cc5N(C)[C@H]4[C@@](O)(C(=O)OC)[C@@H]1OC(=O)CCC[P+](c1cc(C)c(OC)c(C)c1)(c1cc(C)c(OC)c(C)c1)c1cc(C)c(OC)c(C)c1)[C@@H]32 [9e]
decrease in viability (non-tumor CHO cells; 1.0 µM, 48 h): 26.4 ± 5.8%
IC50 (non-tumor CHO cells): 1360 nM

Source: PMC12028158, “Synthesis and In Vitro Evaluation of the Anticancer Effect of Novel Phosphonium Vindoline Derivatives” (International Journal of Molecular Sciences, 2025)
